Measurements as given in ChEMBL document CHEMBL4834420, “Projected Dose Optimization of Amino- and Hydroxypyrrolidine Purine PI3Kδ Immunomodulators” (J Med Chem, 2021).
In brackets after ≈: the same amount, converted by molar mass.

What was measured:
[1] = Protein binding in C57BL/6 mouse plasma; assay type: ADME, cell-free; conditions: read-out: PPB (converted)
[2] = Unbound Trough plasma concentration Brown Norway rat at 10 mg/kg, po; assay type: ADME, organism-based; conditions: in vivo
[3] = biological target: Cytochrome P450 2C9 (Homo sapiens, UniProt P11712); assay: Inhibition of CYP2C9 (unknown origin); assay type: ADME
[4] = Protein binding in human plasma; assay type: ADME, cell-free; conditions: read-out: PPB (converted)
[5] = Inhibition of dog PI3Kdelta; set-up: species or system Canis lupus familiaris
[6] = AUC in C57BL/6 mouse at 100 mg/kg; assay type: ADME, organism-based; set-up: dose 100 mg/kg; conditions: in vivo
[7] = Volume of distribution in Wistar Han rat; assay type: ADME; conditions: in vivo
[8] = Inhibition of rat PI3Kdelta
[9] = Intrinsic clearance in Beagle dog at 0.25 mg/kg, iv or 0.5 mg/kg, po; assay type: ADME, organism-based, Canis lupus familiaris; conditions: in vivo
[10] = Unbound volume of distribution in Beagle dog; assay type: ADME, Canis lupus familiaris; conditions: in vivo
[11] = Unbound trough plasma concentration Brown Norway rat at 30 mg/kg, po; assay type: ADME, organism-based; conditions: in vivo
[12] = Plasma clearance in C57BL/6 mouse at 1 mg/kg, iv or 3 mg/kg, po; assay type: ADME, organism-based
[13] = biological target: Cytochrome P450 3A4 (Homo sapiens, UniProt P08684); assay: Inhibition of CYP3A4 (unknown origin); assay type: ADME
[14] = Trough plasma concentration Brown Norway rat at 10 mg/kg, po; assay type: ADME, organism-based; conditions: in vivo, read-out: Cmin
[15] = biological target: T1, Cytochrome P450 2C8 (Homo sapiens, UniProt P10632); assay: Inhibition of CYP2C8 (unknown origin); assay type: ADME
T1 sequence (P10632 whole entry): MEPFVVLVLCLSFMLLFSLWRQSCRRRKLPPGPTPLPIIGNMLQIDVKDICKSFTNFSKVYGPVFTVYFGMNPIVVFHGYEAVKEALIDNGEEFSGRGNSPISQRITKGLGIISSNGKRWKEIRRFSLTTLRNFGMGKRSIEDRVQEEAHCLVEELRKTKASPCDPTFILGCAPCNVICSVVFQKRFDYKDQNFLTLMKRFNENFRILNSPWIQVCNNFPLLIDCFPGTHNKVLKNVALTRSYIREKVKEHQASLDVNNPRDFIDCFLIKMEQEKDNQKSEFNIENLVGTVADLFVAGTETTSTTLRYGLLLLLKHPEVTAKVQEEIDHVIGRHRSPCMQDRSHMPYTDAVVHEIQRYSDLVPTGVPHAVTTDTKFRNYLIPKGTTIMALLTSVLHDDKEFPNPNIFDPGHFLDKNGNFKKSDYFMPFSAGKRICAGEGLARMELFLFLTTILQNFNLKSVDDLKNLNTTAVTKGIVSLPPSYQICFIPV

[16] = Plasma clearance in Wistar Han rat at 0.5 mg/kg, iv or 1 mg/kg, po; assay type: ADME, organism-based
[17] = biological target: T2, Solute carrier organic anion transporter family member 1B1 (Homo sapiens, UniProt Q9Y6L6); assay: Inhibition of OATP1B1 (unknown origin)
T2 sequence (Q9Y6L6 whole entry): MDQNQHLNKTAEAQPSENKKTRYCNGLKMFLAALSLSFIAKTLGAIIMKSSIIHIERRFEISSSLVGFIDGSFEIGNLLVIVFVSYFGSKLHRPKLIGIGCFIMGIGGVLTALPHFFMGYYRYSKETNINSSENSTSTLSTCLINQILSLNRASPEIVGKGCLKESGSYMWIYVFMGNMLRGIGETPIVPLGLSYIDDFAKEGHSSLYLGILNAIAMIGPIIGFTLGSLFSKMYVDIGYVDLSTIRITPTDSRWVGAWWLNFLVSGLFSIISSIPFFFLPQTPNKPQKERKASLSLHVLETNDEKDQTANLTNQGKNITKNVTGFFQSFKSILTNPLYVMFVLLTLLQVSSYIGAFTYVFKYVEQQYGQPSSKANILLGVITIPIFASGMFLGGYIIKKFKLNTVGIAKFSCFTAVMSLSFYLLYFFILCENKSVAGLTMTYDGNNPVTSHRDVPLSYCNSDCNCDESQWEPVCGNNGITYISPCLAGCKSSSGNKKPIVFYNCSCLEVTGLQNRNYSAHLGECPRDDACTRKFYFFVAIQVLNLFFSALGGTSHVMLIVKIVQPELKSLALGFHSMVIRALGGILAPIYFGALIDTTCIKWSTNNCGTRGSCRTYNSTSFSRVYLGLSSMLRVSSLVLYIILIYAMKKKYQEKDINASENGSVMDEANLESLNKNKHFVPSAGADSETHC

[18] = Protein binding in Wistar Han rat plasma; assay type: ADME, cell-free; conditions: read-out: PPB (converted)
[19] = Solubility of the compound at pH 7.4; assay type: physicochemical; conditions: buffer
[20] = tested on: P-gp (MDR1); assay: Efflux ratio of apparent permeability from basolateral to apical side over apical to basolateral side in dog MDCK2 cells expressing MDR1 PGP; assay type: ADME, cell-based, Canis lupus familiaris, MDCKII-MDR1; conditions: MDCK-MDR1

Chain of Cytochrome P450 2C9 (P11712 whole entry): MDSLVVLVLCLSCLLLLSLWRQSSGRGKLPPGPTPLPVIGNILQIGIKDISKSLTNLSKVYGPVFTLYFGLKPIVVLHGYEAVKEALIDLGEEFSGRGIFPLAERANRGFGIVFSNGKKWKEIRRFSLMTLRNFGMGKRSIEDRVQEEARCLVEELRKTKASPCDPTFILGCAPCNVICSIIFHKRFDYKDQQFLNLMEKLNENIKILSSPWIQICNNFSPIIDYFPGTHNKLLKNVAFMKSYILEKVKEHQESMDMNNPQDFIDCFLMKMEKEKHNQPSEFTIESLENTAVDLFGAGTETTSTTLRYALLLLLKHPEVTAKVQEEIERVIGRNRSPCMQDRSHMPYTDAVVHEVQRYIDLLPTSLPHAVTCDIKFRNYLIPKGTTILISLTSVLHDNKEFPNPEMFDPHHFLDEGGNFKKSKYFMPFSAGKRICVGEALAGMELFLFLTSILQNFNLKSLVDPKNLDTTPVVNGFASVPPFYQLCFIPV
Chain of Cytochrome P450 3A4 (P08684 whole entry): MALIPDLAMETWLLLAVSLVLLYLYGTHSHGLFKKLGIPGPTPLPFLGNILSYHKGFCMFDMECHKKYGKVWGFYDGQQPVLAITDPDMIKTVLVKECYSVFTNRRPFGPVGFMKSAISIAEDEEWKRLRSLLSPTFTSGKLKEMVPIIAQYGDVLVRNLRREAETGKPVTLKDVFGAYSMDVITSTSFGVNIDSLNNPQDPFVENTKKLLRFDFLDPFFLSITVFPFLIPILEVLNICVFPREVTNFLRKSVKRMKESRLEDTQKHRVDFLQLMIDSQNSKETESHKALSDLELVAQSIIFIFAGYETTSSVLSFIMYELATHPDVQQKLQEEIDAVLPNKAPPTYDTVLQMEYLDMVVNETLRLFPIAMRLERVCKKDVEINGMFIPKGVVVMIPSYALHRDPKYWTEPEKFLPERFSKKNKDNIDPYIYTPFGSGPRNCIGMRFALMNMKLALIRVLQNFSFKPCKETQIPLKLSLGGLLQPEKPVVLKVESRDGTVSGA

fraction unbound [1]: 0.47
fCmin [2]: 8 nM
IC50 [3]: > 50000 nM
fraction unbound [4]: 0.7
IC50 [5]: 2.5 nM
AUC [6]: 133 µM·h
Vd [7]: 1 L/kg
IC50 [8]: 6.6 nM
CL [9]: 6.2 mL/min/kg
Vdu [10]: 1.8 L/kg
fCmin [11]: 62 nM
clearance [12]: 45 mL/min/kg
IC50 [13]: > 50000 nM
concentration [14]: 14 nM
IC50 [15]: > 50000 nM
clearance [16]: 8.1 mL/min/kg
inhibition (INH) [17]: Not Active
fraction unbound [18]: 0.18
solubility [19]: 15 mg/mL (≈ 38.2 mM)
efflux ratio [20]: 16
SMILES: CCn1c(-c2cnc(C)nc2)nc2c(N[C@H]3CCN(C(=O)C4CC4)C3)ncnc21
